Where “and” joins values, the source holds several entries; their conditions need not be identical. Equal entries are not always repeated.
Assays:
[1] = tested on: S. homoeocarpa; experiment: Zone of inhibition assay on PDA plates; assay type: cell-based, Scerotinia homoeocarpa
Procedure: (§1) To test the efficacy of calcium propionate (CaP) against the four microbes listed above, zone of inhibition assays were performed. Wells were bored in potato dextrose agarose (PDA) plates then amended with […] calcium propionate at concentrations of 0.1%, 0.2%, 0.3%, 0.4%, and 0.5% (w/v). Control plates were amended with […] dH2O. Plates were inoculated using plugs from active cultures. Growth patterns were observed over seven days. Representative results with M. poae are shown at three days following inoculation (FIG. 1A) and seven days following inoculation (FIG. 1B).
(§2) The zone of inhibition assays described in Example 1 were performed using calcium propionate doses of 0.5%, 1%, 2%, 3%, and 4% (w/v). Growth diameter was recorded at 2, 5, and 7 days post inoculation. The data shown in Table 1 represent the average±standard deviation (SD) of two replicate plates for each strain tested.
(§3) Zone of inhibition assays using PDA plates amended with 5-12% (w/v) calcium propionate were performed as described above. As a control, plates were amended with a composition comprising propiconazole, a commonly used fungicidal treatment for microbe infection of turfgrass, sold under the trademark Banner MaxxII®. Growth diameter was recorded for 13 days post inoculation. The data shown in Table 2 represent the average±standard deviation (SD) of three replicate plates for each strain tested. Inoculants of S. homoeocarpa, M. poae, and R. solani generally grow to luxuriant culture, covering the entire surface of the plate (8.5 cm growth) in 7 days.

[2] = tested on: R. solani; experiment: Zone of inhibition assay on PDA plates; assay type: cell-based, Rhizoctonia solani
Procedure: as §1, §2, §3

[3] = tested on: R. solani; experiment: Growth on PDA with calcium propionate fully integrated into the agarose; assay type: cell-based, Rhizoctonia solani; details: for Growth, R. solani: single plate
Procedure: In contrast to the zone of inhibition assays described in Examples 1-3, for this experiment, PDA with calcium propionate fully integrated into the agarose was prepared. Thus, inoculants were grown on plates in which calcium propionate was incorporated at a uniform concentration throughout the plate, rather than the zones of concentration established by simple diffusion in the zone of inhibition assays. The PDA plates were amended with 5, 7.5, 10, or 12% (w/v) calcium propionate. Growth diameter was recorded for 15 days post inoculation. The data shown in Table 3 represent the results of single plate tests.

[4] = tested on: S. homoeocarpa; experiment: Plug transfer to PDA plates without calcium propionate (fungistatic or fungicidal); assay type: cell-based, Scerotinia homoeocarpa
[5] = tested on: S. homoeocarpa; experiment: New inoculants in MEB liquid culture amended with calcium propionate; assay type: cell-based, Scerotinia homoeocarpa; details: MEB with 1, 2, 5 and 10% (w/v) calcium propionate; five days
Procedure: (§4) To examine the effective dose range in liquid culture, malt extract broth (MEB) was prepared and amended with calcium propionate at concentrations of 1, 2, 5 and 10% (w/v). Unamended MEB was used as a control for growth. Each of the four microbes identified in Example 1 was tested twice by inoculating MEB using agarose plugs from luxuriant cultures. Growth was observed over five days. In each microbe examined, visible growth in liquid culture was apparent by day 2 following inoculation with well-established growth by 4 days in the absence of calcium propionate.

[6] = tested on: R. solani; experiment: as above; assay type: cell-based, Rhizoctonia solani; details: MEB with 1, 2, 5 and 10% (w/v) calcium propionate; five days
Procedure: as §4

[7] = 5-12% (w/v) calcium propionate, day 2, average ± SD of three plates
[8] = 5-12% (w/v) calcium propionate, day 3, average ± SD of three plates
[9] = 5-12% (w/v) calcium propionate, day 6, average ± SD of three plates
[10] = 5-12% (w/v) calcium propionate, day 7, average ± SD of three plates
[11] = 5-12% (w/v) calcium propionate, day 10, average ± SD of three plates
[12] = 5-12% (w/v) calcium propionate, day 13, average ± SD of three plates
[13] = wells 0.1-0.5% (w/v) calcium propionate, observed over seven days
[14] = wells 0.5-4% (w/v) calcium propionate, day 2, average ± SD of two plates
[15] = wells 0.5-4% (w/v) calcium propionate, day 5, average ± SD of two plates
[16] = wells 0.5-4% (w/v) calcium propionate, day 7, average ± SD of two plates

CCC(=O)[O-].CCC(=O)[O-].[Ca+2] [calcium propionate]
growth inhibition in repeated experiments, S. homoeocarpa ([1]; 2-4% (w/v) calcium propionate, repeat, data not shown): mixed
Growth, S. homeocarpa [1, 7]: 2.8 ± 0.2 cm
Growth, S. homeocarpa [1, 8]: 3.5 ± 0.3 cm
Growth, S. homeocarpa [1, 9]: 3.8 ± 0.1 cm
Growth, S. homeocarpa [1, 10]: 4.3 ± 0.3 cm
Growth, S. homeocarpa [1, 11]: 6.2 ± 0.3 cm
Growth, S. homeocarpa [1, 12]: 7.8 ± 0.6 cm
growth inhibition, S. homoeocarpa [1, 13]: no growth inhibition was observed
Growth, S. homeocarpa [1, 14]: 1.9 ± 0.3 cm
Growth, S. homeocarpa [1, 15]: 4.5 ± 0.5 cm
Growth, S. homeocarpa [1, 16]: 6.08±0.57 cm
Growth, S. homeocarpa ([1]; wells 0.5-4% (w/v) calcium propionate, day 7, average ± SD of two plates, listed as Cap): 4.5 ± 0.6 cm
growth inhibition, S. homoeocarpa ([1]; wells 0.5-4% (w/v) calcium propionate, seven day growth period): clear growth inhibition
Growth, R. solani [2, 7]: 2.6 ± 0.3 cm
Growth, R. solani [2, 8]: 4.3 ± 0.3 cm
Growth, R. solani [2, 9]: 8.5 ± 0 cm
Growth, R. solani [2, 10]: 8.5 ± 0 cm
Growth, R. solani [2, 11]: 8.5 ± 0 cm
Growth, R. solani [2, 12]: 8.5 ± 0 cm
inhibition of R. solani growth ([2]; calcium propionate concentrations up to 12% (w/v)): no inhibition
growth inhibition, R. solani [2, 13]: no growth inhibition was observed
growth inhibition, R. solani ([2]; wells 0.5-4% (w/v) calcium propionate): uninhibited
Growth, R. solani [2, 14]: 3.3 ± 0.4 cm
Growth, R. solani [2, 15]: 8.5 ± 0 cm
Growth, R. solani [2, 16]: 8.5 ± 0 cm
Growth, R. solani ([3]; PDA with 5% (w/v) calcium propionate, day 4): 1.3 cm
Growth, R. solani ([3]; PDA with 5% (w/v) calcium propionate, day 5): 1.7 cm
Growth, R. solani ([3]; PDA with 5% (w/v) calcium propionate, day 8): 2.5 cm
Growth, R. solani ([3]; PDA with 5% (w/v) calcium propionate, day 11): 3.2 cm
Growth, R. solani ([3]; PDA with 5% (w/v) calcium propionate, day 15): 4.6 cm
Growth, R. solani ([3]; PDA with 7.5% (w/v) calcium propionate, day 4): 0 cm
Growth, R. solani ([3]; PDA with 7.5% (w/v) calcium propionate, day 5): 1 cm
Growth, R. solani ([3]; PDA with 7.5% (w/v) calcium propionate, day 8): 1.2 cm
Growth, R. solani ([3]; PDA with 7.5% (w/v) calcium propionate, day 11): 1.2 cm
Growth, R. solani ([3]; PDA with 7.5% (w/v) calcium propionate, day 15): 2.0 cm and 2 cm
Growth, R. solani ([3]; PDA with 10% (w/v) calcium propionate, day 4): 0 cm
Growth, R. solani ([3]; PDA with 10% (w/v) calcium propionate, day 5): 0 cm
Growth, R. solani ([3]; PDA with 10% (w/v) calcium propionate, day 8): 0 cm
Growth, R. solani ([3]; PDA with 10% (w/v) calcium propionate, day 11): 0 cm
Growth, R. solani ([3]; PDA with 10% (w/v) calcium propionate, day 15): 0 cm
growth inhibition, R. solani ([3]; PDA with 10% and 12% (w/v) calcium propionate, 15 days): fully inhibited growth
Growth, R. solani ([3]; PDA with 12% (w/v) calcium propionate, day 4): 0 cm
Growth, R. solani ([3]; PDA with 12% (w/v) calcium propionate, day 5): 0 cm
Growth, R. solani ([3]; PDA with 12% (w/v) calcium propionate, day 8): 0 cm
Growth, R. solani ([3]; PDA with 12% (w/v) calcium propionate, day 11): 0 cm
Growth, R. solani ([3]; PDA with 12% (w/v) calcium propionate, day 15): 0 cm
fungistatic or fungicidal effect, S. homoeocarpa ([4]; 5% (w/v) calcium propionate): fungicidal effect
growth on unamended PDA after plug transfer, S. homoeocarpa ([4]; plugs initially grown on 5, 7.5, 10 or 12% (w/v) calcium propionate, observed 14 days): No growth was seen
growth in liquid culture, S. homoeocarpa [5]: no growth was observed
growth in liquid culture, R. solani [6]: no growth was observed

From patent publication US12408664B2 (priority 2018, dated 2025)
